Assays:
[1] = test system: C. albicans CaCi-8; experiment: microbe, parasite or virus in culture; assay type: cell-based, Candida albicans; settings: in the presence of fluconazole; read-out: Target Potency (μM) Mean ± S.E.M CaCi-8^a IC50
Experimental: This subset was re-subjected to the primary assay and was also tested concurrently in two secondary assays. Secondary assay 1 measured chemosensitization of the more resistant CaCi-8 strain. Secondary assay 2 eliminated anything with inherently antifungal activity. […] A final assay (secondary assay 3) was incorporated to discard any compound displaying toxicity to mammalian fibroblasts. […] This screening campaign is also illustrated in FIG. 3B.
Those that inhibited growth in the resistant strain were also tested for toxicity against Candida in the absence of fluconazole and for toxicity against mammalian cells using a fluorescence reporter assay. The positive control for screening in the Candida and mammalian cell assays was the Hsp90 inhibitor geldanamycin (acting in concert with fluconazole; FIG. 4). Compounds that passed these four hurdles were binned through use of a Saccharomyces assay to determine whether the mechanism of action might be through the Hsp90 pathway, the calcineurin pathway, or an uncategorized mechanism.

[2] = test system: C. albicans CaCi-2; experiment: Secondary single-agent (no-fluconazole) activity assay; assay type: cell-based, Candida albicans; settings: in the absence of fluconazole; read-out: Target Potency (μM) Mean ± S.E.M CaCi-2^b IC50
Experimental: Clear, flat-bottom, black, 384-well plates were obtained from Corning. […] Pen/Strep was obtained from Gibco and prepared 100× in PBS. Fluconazole was obtained from Sigma and prepared in 2 mg/ml stock solution in PBS. Alamar Blue was obtained from Biosource International (Catalog No. DAL1100). Phosphate buffered solution (PBS) without calcium and magnesium was obtained from Cellgro.
Fungal inoculum was prepared as follows: 500 μl of yeast was inoculated from cryopreserved stock into a 250-ml shaker flask containing 30 ml growth medium and shaken overnight (16 hours) at 30° C. The culture was spun down, and the broth was poured off and washed with RPMI medium. The culture was spun down again, and the broth was poured off and resuspended in RPMI medium. The OD 600 of 1 ml of fungal culture in a cuvette was read using a standard optical density reader with growth medium as a background blank. The desired volume of fungal inoculum was diluted to starting OD of the fungal inoculum of 0.00015 A600.
Pen/Strep was added to the media to a final 1% concentration. A Combi NL (Thermo) was used to dispense 20 μl/well of assay media into all wells. Geldanamycin (1.5 mM) and fluconazole (0.2 mg/ml) were mixed for the positive control. Then, 80 nl of positive control solution was dispensed into the positive control wells using Thermo Combi nL for a final concentration of 3 μM geldanamycin and 8 μg/ml fluconazole. Then, 100 nl of test compound were pinned from the compound plates into assay plates using a CyBi-Well pin tool. A further 20 μl/well of RPMI synthetic defined medium culture was dispensed into 384-well, black plates. Fungal suspension (20 μl/well) was dispensed into all wells. The plates were incubated in a humidified (90% humidity) Liconic incubator at 37° C. without agitation for 48 hours. Alamar Blue Reagent was diluted 1:40 in Ca/Mg-free PBS. To all plates, 6.4 μl/well of the diluted Alamar Blue was added to the plates to a final dilution factor of 1:200. The plates were incubated for 2 hours at room temperature. Next, RFU of wells was read on a standard plate reader as a measure of relative fungal growth.

[3] = Plasma stability; settings: % remaining in human plasma after a 5-hour incubation
[4] = Plasma protein binding; settings: % bound in human plasma
[5] = target: T1, yeast (Saccharomyces cerevisiae, UniProt P00163); experiment: IC50 values and selectivity of Table 10A (target yeast, anti-target human cytochrome); assay type: biochemical; settings: for IC50: target is yeast; for Selectivity* (anti-target IC50)/(target IC50): target yeast, anti-target human cytochrome
T1 construct: Mitochondrial membranes were prepared from yeast; endogenous in cells; host or cells: yeast (mitochondrial membranes)
Experimental: All measurements were performed in triplicate.

Row | Compound | IC50 [1] [µM] | IC50 [2] [µM] | Plasma Stability [3] [%] | Plasma Protein Binding [4] [%] | IC50 [5] [µM] | Selectivity* (anti-target IC50)/(target IC50) [5]
1 | O=C(O)Cn1nc(-c2ccccc2)c2ccccc21 [Compound 5309553] | > 26 | > 26 | > 99 | 97 | – | –
2 | COC(=O)Cn1nc(-c2ccccc2)c2cc(Cl)ccc21 [Compound 9551137] | 9.84 | > 26 | < 1.0 | > 99 | – | –
3 | CCOC(=O)Cn1nc(-c2ccccc2)c2ccccc21 [Compound 13330959] | > 26 | > 26 | 20 | 99 | – | –
4 | COC(=O)Cn1nc(-c2ccc(Cl)cc2)c2ccccc21 [Compound 46856253] | 11.6 | > 26 | 6.4 | > 99 | – | –
5 | COC(=O)Cn1nc(C)c2ccccc21 [Compound 46856254] | 21.3 ± 8.1 | – | 3.0 | 42 | – | –
6 | COC(=O)Cn1nc(-c2ccc(C)cc2)c2ccccc21 [Compound 46856255] | 11 | > 26 | 4.1 | 96 | – | –
7 | COC(=O)Cn1nc(-c2ccccc2)c2ccc(OC)cc21 [Compound 49835812] | 12.7 | > 26 | 1.3 | 38 | – | –
8 | CC(C)OC(=O)Cn1nc(-c2ccccc2)c2ccccc21 [Compound 49835820] | > 26 | > 26 | 53 | 99 | – | –
9 | COCCn1nc(-c2ccccc2)c2ccccc21 [Compound 49835825] | > 26 | > 26 | 70 | > 99 | – | –
10 | c1ccc(-c2nn(Cc3ncco3)c3ccccc23)cc1 [Compound 49835836] | 34.2 ± 7.9 | > 26 | 97 | > 99 | – | –
11 | COC(=O)Cn1nc(-c2ccc(F)cc2F)c2ccccc21 [Compound I-70] | – | – | – | – | 0.275 | 58.2
12 | COC(=O)Cn1nc(-c2cccc(C(F)(F)F)c2)c2ccccc21 [Compound I-72] | – | – | – | – | 0.04 | 200
13 | CS(=O)(=O)Cn1nc(-c2ccccc2)c2ccccc21 [Compound I-73] | – | – | – | – | > 80 | –
14 | COC(=O)Cn1nc(-c2cccs2)c2ccccc21 [Compound I-76] | – | – | – | – | 1.25 | 32
15 | COC(=O)Cn1nc(-c2cccc(OCCC34CC5CC(CC(C5)C3)C4)c2)c2ccccc21 [Compound I-80] | – | – | – | – | 0.0125 | 20
16 | COC(=O)Cn1nc(-c2ccccc2)c2c(C)cccc21 [Compound I-81] | – | – | – | – | 1.25 | 8
17 | COC(=O)Cn1nc(-c2ccccc2)c2cc(C(F)(F)F)ccc21 [Compound I-83] | – | – | – | – | 40 | 3
18 | Cc1nnc(Cn2nc(-c3ccccc3)c3ccccc32)o1 [Compound I-84] | – | – | – | – | 8 | >32
19 | c1ccc(-c2nn(Cc3ncon3)c3ccccc23)cc1 [Compound I-85] | – | – | – | – | 2 | 40
20 | Cc1nc(Cn2nc(-c3ccccc3)c3ccccc32)no1 [Compound I-86] | – | – | – | – | 5 | >32
21 | COC(=O)Cn1nc(-c2cc(C(F)(F)F)ccc2F)c2ccccc21 [Compound I-88] | – | – | – | – | 0.025 | 200
22 | COC(=O)Cn1nc(-c2ccccc2)c2c(C(F)(F)F)cccc21 [Compound I-89] | – | – | – | – | 10 | 3.75
23 | Cn1nnc(Cn2nc(-c3ccccc3)c3ccccc32)n1 [Compound I-90] | – | – | – | – | 1.25 | 32
24 | Cn1nnnc1Cn1nc(-c2ccccc2)c2ccccc21 [Compound I-91] | – | – | – | – | > 20 | –
25 | c1ccc(-c2nn(Cc3c[nH]nn3)c3ccccc23)cc1 [Compound I-93] | – | – | – | – | 25 | >6

Row | Compound | IC50 [1] [µM] | IC50 [2] [µM] | Plasma Stability [3] [%] | Plasma Protein Binding [4] [%] | IC50 [5] [µM] | Selectivity* (anti-target IC50)/(target IC50) [5]
26 | Cn1cc(Cn2nc(-c3ccccc3)c3ccccc32)nn1 [Compound I-94] | – | – | – | – | 40 | >4
27 | Cn1nncc1Cn1nc(-c2ccccc2)c2ccccc21 [Compound I-95] | – | – | – | – | > 20 | –
28 | Cn1nnc(Cn2nc(-c3cc(C(F)(F)F)ccc3F)c3ccccc32)n1 [Compound I-98] | – | – | – | – | 0.063 | 48
29 | COC(=O)Cn1nc(-c2cc(OCCCC3CCCCC3)ccc2F)c2ccccc21 [Compound I-100] | – | – | – | – | 0.007 | 54
30 | COC(=O)Cn1nc(-c2cc(OCCCC3CCCCC3)ccc2F)c2cccc(C)c21 [Compound I-101] | – | – | – | – | 0.0015 | 49
31 | Cc1cccc2c(-c3cc(OCCCC4CCCCC4)ccc3F)nn(Cc3nnn(C)n3)c12 [Compound I-103] | – | – | – | – | 0.007 | 71
32 | FC(F)Cn1nc(-c2ccccc2)c2ccccc21 [Compound I-110] | – | – | – | – | > 120 | –
33 | N#Cc1ncccc1-n1nc(-c2ccccc2)c2ccccc21 [Compound I-112] | – | – | – | – | > 120 | –
34 | c1ccc(-c2nn(Cc3ccccn3)c3ccccc23)cc1 [Compound I-114] | – | – | – | – | > 120 | –
35 | COC(=O)Cn1nc(-c2cccnc2)c2ccccc21 [Compound I-121] | – | – | – | – | 15 | –
36 | c1ccc(-c2nn(Cc3ncccn3)c3ccccc23)cc1 [Compound I-123] | – | – | – | – | > 120 | –
37 | Fc1ccc(C(F)(F)F)cc1-c1nn(Cc2cnccn2)c2ccccc12 [Compound I-125] | – | – | – | – | 0.059 | 340
38 | Cc1cccc2c(-c3cc(C(F)(F)F)ccc3F)nn(Cc3cnccn3)c12 [Compound I-126] | – | – | – | – | 0.094 | 320
39 | COC(=O)Cn1nc(-c2c(C)cccc2C)c2ccccc21 [Compound I-127] | – | – | – | – | > 32 | –
40 | COC(=O)Cn1nc(-c2c(F)cccc2F)c2ccccc21 [Compound I-128] | – | – | – | – | 0.5 | 32
41 | COC(=O)Cn1nc(-c2cc(F)ccc2F)c2ccccc21 [Compound I-129] | – | – | – | – | 0.15 | 133
42 | COC(=O)Cn1nc(-c2cccc(F)c2F)c2ccccc21 [Compound I-130] | – | – | – | – | 0.25 | 32
43 | COC(=O)Cn1nc(-c2cc(F)ccc2C)c2ccccc21 [Compound I-131] | – | – | – | – | 0.4 | 40
44 | COC(=O)Cn1nc(-c2ccccc2Cl)c2ccccc21 [Compound I-132] | – | – | – | – | 0.75 | 32
45 | COC(=O)Cn1nc(-c2cccc(OCc3ccccc3)c2C)c2ccccc21 [Compound I-133] | – | – | – | – | 0.4 | 30
46 | COC(=O)Cn1nc(-c2cc(OCc3ccccc3)ccc2C)c2ccccc21 [Compound I-135] | – | – | – | – | 0.8 | 3.75
47 | COC(=O)Cn1nc(-c2cccc(OCCN(C)C)c2)c2ccccc21 [Compound I-137] | – | – | – | – | > 32 | –
48 | CCN(CC)CCOc1cccc(-c2nn(CC(=O)OC)c3ccccc23)c1 [Compound I-138] | – | – | – | – | > 32 | –
49 | COC(=O)Cn1nc(-c2cccc(OCCN(C(C)C)C(C)C)c2)c2ccccc21 [Compound I-139] | – | – | – | – | 1 | 6
50 | COC(=O)Cn1nc(-c2cccc(OCCC3CCCCC3)c2)c2ccccc21 [Compound I-141] | – | – | – | – | 0.0625 | 12
